Residue numbers refer to the chain shown, from its start. Values after ≈ are worked out from the molar mass of the structure shown. Read-outs that look alike come from different tables or passages of the source.
Assays:
[1] = biological target: T1, EcDsbB (Escherichia coli, UniProt P0A6M2, C49V/C8A); assay: In vitro ubiquinone reduction assay with purified EcDsbB; format: biochemical, E. coli
T1 sequence (P0A6M2 1-176 C8A/C49V): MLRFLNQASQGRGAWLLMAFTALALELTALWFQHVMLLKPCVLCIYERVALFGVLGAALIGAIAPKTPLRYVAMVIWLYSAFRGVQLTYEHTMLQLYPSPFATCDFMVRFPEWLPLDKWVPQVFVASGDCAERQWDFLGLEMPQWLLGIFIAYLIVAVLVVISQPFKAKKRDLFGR

[2] = system: elastase (LasB) activity of P. aeruginosa wild type; assay: Elastase in vivo assay, wild type P. aeruginosa; format: cell-based; conditions: Pseudomonas aeruginosa, 15 h, read-out: Elastase in vivo assay IC50, WT
[3] = biological target: T2, PaDsbB1 (Pseudomonas aeruginosa, UniProt Q02TM7, C154Y); assay: In vitro ubiquinone reduction assay with purified PaDsbB1; format: biochemical, P. aeruginosa
T2 sequence (Q02TM7 1-169 C154Y): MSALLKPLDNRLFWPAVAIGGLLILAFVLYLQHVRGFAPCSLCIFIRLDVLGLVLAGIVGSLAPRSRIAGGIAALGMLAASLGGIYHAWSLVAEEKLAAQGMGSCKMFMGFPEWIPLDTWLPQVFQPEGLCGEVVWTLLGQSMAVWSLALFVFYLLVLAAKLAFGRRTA

[4] = biological target: human protein disulfide isomerase (PDI) (Homo sapiens, UniProt P07237); assay: PDI insulin reduction assay; format: biochemical
human protein disulfide isomerase (PDI), sequence (P07237 18-508): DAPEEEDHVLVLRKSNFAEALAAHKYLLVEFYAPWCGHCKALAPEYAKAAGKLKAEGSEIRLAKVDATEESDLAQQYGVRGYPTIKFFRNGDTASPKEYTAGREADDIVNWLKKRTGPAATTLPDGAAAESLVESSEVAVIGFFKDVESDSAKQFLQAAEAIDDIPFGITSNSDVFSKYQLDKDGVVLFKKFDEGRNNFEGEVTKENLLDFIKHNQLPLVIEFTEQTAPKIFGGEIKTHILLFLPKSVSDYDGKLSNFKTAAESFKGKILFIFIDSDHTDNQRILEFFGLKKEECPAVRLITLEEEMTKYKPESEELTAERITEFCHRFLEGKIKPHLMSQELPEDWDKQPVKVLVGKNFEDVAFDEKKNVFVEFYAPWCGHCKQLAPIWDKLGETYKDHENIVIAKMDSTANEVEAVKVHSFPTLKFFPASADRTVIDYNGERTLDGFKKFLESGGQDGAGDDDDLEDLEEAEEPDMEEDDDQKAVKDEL

[5] = biological target: T3, PaDsbB2 (Pseudomonas aeruginosa, UniProt Q02EA7, C17A/C53A); assay: In vitro ubiquinone reduction assay with purified PaDsbB2; format: biochemical, P. aeruginosa
T3 sequence (Q02EA7 1-163 C17A/C53A): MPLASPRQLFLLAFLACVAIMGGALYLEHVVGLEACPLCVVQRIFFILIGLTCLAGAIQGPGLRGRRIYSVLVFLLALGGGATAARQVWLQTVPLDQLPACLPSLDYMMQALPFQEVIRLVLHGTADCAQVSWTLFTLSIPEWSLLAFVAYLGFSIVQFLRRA

[6] = biological target: T4, PaDsbB1 (ΔdsbB2) (Pseudomonas aeruginosa, UniProt Q02TM7); assay: Elastase in vivo assay, ΔdsbB2 mutant; format: cell-based, P. aeruginosa
T4 sequence (Q02TM7 1-169): T2 sequence (Q02TM7 1-169 C154Y) with Y154C

[7] = system: MtVKOR expressed in E. coli; format: cell-based, M. tuberculosis
[8] = biological target: MtVKOR (Mycobacterium tuberculosis, UniProt I6X5W1); assay: In vitro ubiquinone reduction assay with purified MtVKOR; format: biochemical, M. tuberculosis
[9] = biological target: T5, PaDsbB1 expressed in E. coli (Pseudomonas aeruginosa, UniProt Q02TM7); format: cell-based, P. aeruginosa; conditions: agar plates, HTS control
T5 sequence (Q02TM7 1-169): T2 sequence (Q02TM7 1-169 C154Y) with Y154C

[10] = system: M. tuberculosis H37Rv; assay: M. tuberculosis H37Rv growth inhibition; conditions: alamar blue assay, ±SD
[11] = system: M. tuberculosis JR1740 strain; format: cell-based; conditions: JR1740 ± ATc
[12] = biological target: T6, RnVKOR expressed in E. coli (Rattus norvegicus, UniProt Q6TEK4, DEL31-33); assay: Agar β-Gal^dbs assay, E. coli expressing RnVKOR; format: cell-based; conditions: FSH250 strain (Figure 4)
T6 sequence (Q6TEK4 with tags, fused parts or gaps DEL31-33): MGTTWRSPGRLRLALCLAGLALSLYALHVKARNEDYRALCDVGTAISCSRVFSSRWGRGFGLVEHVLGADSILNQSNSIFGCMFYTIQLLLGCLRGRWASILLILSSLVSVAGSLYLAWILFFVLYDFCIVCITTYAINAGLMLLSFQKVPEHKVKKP

[13] = read-out: PDI IC50, insulin reduction assay, Table 2, 95% CI in parenthesis
[14] = read-out: In vitro assay MtVKOR Ki, 1–100 μM Ubiquinone-1, ±SD

Compound | IC50 [1] | Ki [1] | IC50 [2] | IC50 [3] | IC50 [4] | Inhibition of PDI activity (in words) ([4]; insulin reduction assay) | IC50 [5] | IC50 [6] | In vivo assay (MIC) [10] | MIC in VKOR knockdown (induced) versus non-induced strain (in words) [11] | IC50 [4, 13] | Inhibition of RnVKOR expressed in E. coli [12] | also measured
N#CC(C#N)=NNc1ccccc1 [PA2] | 37.5 ± 5 µM | 30 ± 7 µM | > 100 µM | 83 ± 17 µM | 98.3 µM | inhibited | 83 ± 13 µM | > 100 µM | – | – | – | – | –
Cn1c(=O)c([N+](=O)[O-])c(Cl)c2ccccc21 [PA3] | – | 13 ± 1.5 µM | 646 µM | 6 ± 0.6 µM | 98 µM | inhibited | 3 ± 0.11 µM | 9 µM | – | – | – | – | Ki [3]: 2.8 ± 0.2 µM; Ki [5]: 7.5 ± 0.8 µM
O=C1c2ccccc2C(=O)C1c1ccc(Br)cc1 [Bromindione, reference compound] | – | – | – | – | > 100 µM | – | – | – | 250 ± 0 µM | – | – | – | Inhibition of MtVKOR in E. coli screening strain (control) ([7]; agar plates, HTS control): inhibits; IC50 [8]: 5 ± 0.73 µM; Ki [8]: 1 ± 0.09 µM; Inhibition of PaDsbB1 in E. coli screening strain (control) [9]: but not PaDsbB1
O=C(Nc1ccccc1)c1cc(Cl)ccc1O [MT1] | – | – | – | – | – | – | – | – | 50.5 ± 0 µM | lower MICs | > 100 µM | inhibited | –
c1ccc(Nc2nc3nonc3nc2Nc2ccccc2)cc1 [MT7] | – | – | – | – | – | – | – | – | 41 ± 0 µM | lower MICs | > 100 µM | inhibited | –
NC(=O)c1nc(Cl)c(Cl)c(Cl)c1Cl [PA1] | 150 ± 50 µM | 100 ± 30 µM | 280 µM | 530 ± 60 µM | > 100 µM | does not target | 600 ± 50 µM | 121 µM | – | – | – | does not target | –
OC(CNCc1ccccc1)Cn1c2ccc(Cl)cc2c2cc(Cl)ccc21 (centres unmarked) [MT2] | – | – | – | – | – | – | – | – | 26.04 ± 9 µM | lower MICs | > 100 µM | inhibited | Ki [8, 14]: 4 ± 0.3 µM
O=c1c(Cl)c(Cl)cnn1Cc1ccccc1Cl [compound 12, reference compound] | 0.014 ± 0.0001 µM | 0.005 ± 0.001 µM | 229 µM | 4.1 ± 0.6 µM | > 100 µM | – | 6 ± 1 µM | 8.6 µM | – | – | – | – | Ki [3]: 3 ± 0.2 µM; Ki [5]: 4 ± 0.2 µM; Inhibition of PaDsbB1 in E. coli screening strain (control) [9]: inhibits
Nc1ncn([C@@H]2O[C@H](CO)[C@@H](O)[C@H]2O)c(=O)n1 [MT9] | – | – | – | – | – | – | – | – | >979 ± 0 µM | – | > 100 µM | – | MIC against MtVKOR when expressed in E. coli (Figure 3) [7]: 0.44 µM (≈ 0.107 µg/mL); Ki [8, 14]: 2 ± 0.05 µM
